Measured values taken from patent publication US10280150B2 (FORMA TM2, Inc., priority 2014, dated 2019).
Read-outs that look alike come from different tables or passages of the source.

What was measured:
[1] = tested on: HCT116 isogenic IDH1-R132C mutant cells; experiment: Cellular 2-HG assay using HCT116 mutant IDH1 cells (R132C), RapidFire mass spectrometry; assay type: cell-based; conditions: Homo sapiens, read-out: HCT116 IDH1 R132C IC50 (Range)
Description: (§1) Example 106—Cellular 2-HG assay using HCT116 mutant IDH1 cells
(§2) HCT116 isogenic IDH1-R132H and IDH1-R132C mutant cells were cultured in growth media (McCoy's 5 A, 10% fetal bovine serum, 1× antibiotic-antimycotic solution and 0.3 mg/mL G418) in 5% CO2 in an incubator at 37° C. To prepare the assay, cells were trypsinized and resuspended in assay media (McCoy's 5 A with no L-glutamine, 10% fetal bovine serum, 1× antibiotic-antimycotic solution and 0.3 mg/mL G418). An aliquot of 10,000 cells/100 μL was transferred to each well of a clear 96-well tissue culture plate. The cells were incubated in 5% CO2 at 37° C. in an incubator overnight to allow for proper cell attachment. An aliquot of 50 μL of compound containing assay media were then added to each well and the assay plate was kept in 5% CO2 at 37° C. in an incubator for 24 hours. The media was then removed from each well and 150 μL of a methanol/water mixture (80/20 v/v) was added to each well. The plates were kept at −80° C. freezer overnight to allow for complete cell lysis. An aliquot of 125 μL of extracted supernatant was analyzed by RapidFire high-throughout-mass spectrometry (Agilent) to determine the cellular 2-HG level. The IC50 of a given compound was calculated by fitting the dose response curve of cellular 2-HG inhibition at a given concentration with the four parameter logistic equation.

[2] = biological target: IDH1-R132H recombinant protein (Homo sapiens (Human), UniProt O75874, R132H); experiment: IDH1-R132H enzymatic assay (inhibition of NADPH consumption, diaphorase/resazurin readout); assay type: biochemical; conditions: read-out: Enzyme IDH1 R132H IC50 (Range)
Sequence of IDH1-R132H recombinant protein (O75874 whole entry R132H): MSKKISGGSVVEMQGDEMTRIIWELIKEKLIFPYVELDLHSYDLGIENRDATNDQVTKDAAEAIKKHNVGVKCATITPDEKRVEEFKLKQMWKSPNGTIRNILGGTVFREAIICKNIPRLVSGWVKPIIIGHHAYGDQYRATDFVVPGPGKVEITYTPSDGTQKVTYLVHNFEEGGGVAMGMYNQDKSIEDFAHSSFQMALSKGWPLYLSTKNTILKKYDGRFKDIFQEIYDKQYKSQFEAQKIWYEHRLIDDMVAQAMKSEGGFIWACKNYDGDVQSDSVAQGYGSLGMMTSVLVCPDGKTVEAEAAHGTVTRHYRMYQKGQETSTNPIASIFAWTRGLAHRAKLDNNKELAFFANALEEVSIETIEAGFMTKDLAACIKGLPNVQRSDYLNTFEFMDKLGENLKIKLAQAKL
Summary of the method: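 Compound was preincubated 15 min at 25 °C with 30 nM IDH1-R132H or 10 nM IDH1-R132C in Tris pH 7.5 buffer with MgCl2, BSA and Triton X-100. Reaction with 2 mM α-ketoglutarate and 20 μM NADPH (solution concentrations) ran 45 min at 25 °C. Remaining NADPH was detected via diaphorase/resazurin fluorescence (ex 535/em 590 nm), and IC50 came from four-parameter fits.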

[3] = biological target: IDH1-R132C recombinant protein (Homo sapiens (Human), UniProt O75874, R132C); experiment: IDH1-R132C enzymatic assay (inhibition of NADPH consumption, diaphorase/resazurin readout); assay type: biochemical; conditions: read-out: Enzyme IDH1 R132C IC50 (Range)
Sequence of IDH1-R132C recombinant protein (O75874 whole entry R132C): as the sequence (O75874 whole entry R132H) above, with H132C counted along it
Description: Assays were performed in a 384-well black plate. An aliquot of 250 nL of compound was incubated with 10 μL of 30 nM IDH1-R132H or 10 nM IDH1-R132C recombinant protein in assay buffer (50 mM Tris pH=7.5, 150 mM NaCl, 5 mM MgCl2, 0.1% (w/v) Bovine Serum Albumin, and 0.01% Triton X-100) in each well at 25° C. for 15 minutes. After the plate was centrifuged briefly, an aliquot of 10 μL of 2 mM α-ketoglutarate and 20 μM NADPH solution prepared in assay buffer was then added to each well and the reaction was maintained at 25° C. for 45 minutes. An aliquot of 10 μL of diaphorase solution (0.15 U/mL diaphorase and 30 µM Resazurin in assay buffer) was added to each well. The plate was maintained at 25° C. for 15 minutes and then read on a plate reader with excitation and emission wavelengths at 535 nm and 590 nm, respectively. The IC50 of a given compound was calculated by fitting the dose response curve of inhibition of NADPH consumption at a given concentration with the four parameter logistic equation.

[4] = tested on: HCT116 isogenic IDH1-R132H mutant cells; experiment: Cellular 2-HG assay using HCT116 mutant IDH1 cells (R132H), RapidFire mass spectrometry; assay type: cell-based; conditions: Homo sapiens, read-out: HCT116 IDH1 R132H IC50 (Range)
Description: as §1, §2

[5] = HCT-116, cellular 2-HG level, HCT116 IDH1-R132C cells, 24 hours
[6] = HCT-116, cellular 2-HG level, HCT116 IDH1-R132H cells, 24 hours

| IC50 [1, 5] [nM] | IC50 [2] [nM] | IC50 [3] [nM] | IC50 [4, 6] [nM] | SMILES | IC50 ([1]; HCT-116, 24 h) [nM] | IC50 ([4]; HCT-116, 24 h) [nM] |
| --- | --- | --- | --- | --- | --- | --- |
| < 100 | < 100 | < 100 | < 100 | CC(=O)Nc1ccnc(N[C@@H](C)c2cc3cc(Cl)ccc3[nH]c2=O)n1 [Compound I-25, (S)—N-(2-((1-(6-Chloro-2-oxo-1,2-dihydroquinolin-3-yl)ethyl)amino)pyrimidin-4-yl)acetamide] | – | – |
| 100 to 1000 | < 100 | < 100 | 100 to 1000 | C[C@H](Nc1nccc(NC(=O)C2CC2)n1)c1cc2cc(Cl)ccc2[nH]c1=O [Compound I-29] | – | – |
| 100 to 1000 | < 100 | < 100 | < 100 | CCC(=O)Nc1ccnc(N[C@@H](C)c2cc3cc(Cl)ccc3[nH]c2=O)n1 [Compound I-33] | – | – |
| 100 to 1000 | < 100 | < 100 | < 100 | C[C@H](Nc1nccc(N2CCOC2=O)n1)c1cc2cc(Cl)ccc2[nH]c1=O [Compound I-44, (S)-3-(2-((1-(6-Chloro-2-oxo-1,2-dihydroquinolin-3-yl)ethyl)amino)pyrimidin-4-yl)oxazolidin-2-one] | – | – |
| 1000 to 10000 | 100 to 1000 | 100 to 1000 | 100 to 1000 | O=C1OCCN1c1ccnc(NCc2cc3cc(Cl)ccc3[nH]c2=O)n1 [Compound I-47] | – | – |
| 100 to 1000 | < 100 | 100 to 1000 | 100 to 1000 | Cc1cccn1-c1ccnc(N[C@@H](C)c2cc3cc(Cl)ccc3[nH]c2=O)n1 [Compound I-51, (S)-6-Chloro-3-(1-((4-(2-methyl-1H-pyrrol-1-yl)pyrimidin-2-yl)amino)ethyl) quinolin-2(1H)-one] | – | – |
| 1000 to 10000 | 100 to 1000 | 1000 to 10000 | 1000 to 10000 | C[C@H](Nc1nccc(-n2ccnc2)n1)c1cc2cc(Cl)ccc2[nH]c1=O [Compound I-54] | – | – |
| 100 to 1000 | 100 to 1000 | 100 to 1000 | 100 to 1000 | C[C@H](Nc1nccc(-n2cnc3c2CCC3)n1)c1cc2cc(Cl)ccc2[nH]c1=O [Compound I-55] | – | – |
| 1000 to 10000 | < 100 | 1000 to 10000 | 1000 to 10000 | Cc1oncc1-c1ccnc(N[C@@H](C)c2cc3cc(Cl)ccc3[nH]c2=O)n1 [Compound I-58, (S)-6-Chloro-3-(1-((4-(5-methylisoxazol-4-yl)pyrimidin-2-yl)amino)ethyl)quinolin-2(1H)-one] | – | – |
| 100 to 1000 | < 100 | 100 to 1000 | 100 to 1000 | Cc1nnnn1-c1ccnc(N[C@@H](C)c2cc3cc(Cl)ccc3[nH]c2=O)n1 [Compound I-59, (S)-6-chloro-3-(1-((4-(5-methyl-1H-tetrazol-1-yl)pyrimidin-2-yl)amino)ethyl)quinolin-2(1H)-one] | – | – |
| 100 to 1000 | < 100 | 100 to 1000 | < 100 | C[C@H](Nc1nccc(-c2cncn2CC(F)(F)F)n1)c1cc2cc(Cl)ccc2[nH]c1=O [Compound I-60, (S)-6-Chloro-3-(1-((4-(1-(2,2,2-trifluoroethyl)-1H-imidazol-5-yl)pyrimidin-2-yl)amino)ethyl)quinolin-2(1H)-one] | – | – |
| 100 to 1000 | < 100 | < 100 | 100 to 1000 | C[C@H](Nc1nccc(-c2cncn2CC2CC2)n1)c1cc2cc(Cl)ccc2[nH]c1=O [Compound I-61] | – | – |
| 1000 to 10000 | < 100 | < 100 | 100 to 1000 | C[C@H](Nc1nccc(-c2cnc3ccccn23)n1)c1cc2cc(Cl)ccc2[nH]c1=O [Compound I-63, (S)-6-chloro-3-(1-((4-(imidazo[1,2-a]pyridin-3-yl)pyrimidin-2-yl)amino)ethyl)quinolin-2(1H)-one] | – | – |
| 100 to 1000 | < 100 | 100 to 1000 | 100 to 1000 | CC(C)n1cncc1-c1ccnc(N[C@@H](C)c2cc3cc(Cl)ccc3[nH]c2=O)n1 [Compound I-64, (S)-6-chloro-3-(1-((4-(1-isopropyl-1H-imidazol-5-yl)pyrimidin-2-yl)amino)ethyl) quinolin-2(1H)-one] | – | – |
| 1000 to 10000 | 100 to 1000 | 1000 to 10000 | 100 to 1000 | C[C@H](Nc1nccc(-n2cccc2C(F)(F)F)n1)c1cc2cc(Cl)ccc2[nH]c1=O [Compound I-65, (S)-6-Chloro-3-(1-((4-(2-(triflouromethyl)-1H-pyrrol-1-yl)pyrimidin-2-yl)amino)ethyl) quinolin-2(1H)-one] | – | – |
| 100 to 1000 | 100 to 1000 | 1000 to 10000 | 100 to 1000 | C[C@H](Nc1nccc(-c2cnnn2C)n1)c1cc2cc(Cl)ccc2[nH]c1=O [Compound I-66, (S)-6-chloro-3-(1-((4-(1-methyl-1H-1,2,3-triazol-5-yl)pyrimidin-2-yl)amino)ethyl)quinolin-2(1H)-one] | – | – |
| 100 to 1000 | < 100 | < 100 | < 100 | C[C@H](Nc1nccc(-c2cncn2Cc2ccccc2)n1)c1cc2cc(Cl)ccc2[nH]c1=O [Compound I-68] | – | – |
| < 100 | < 100 | 100 to 1000 | < 100 | C[C@H](Nc1nccc(-c2cncn2C)n1)c1cc2cc(Cl)ccc2[nH]c1=O [Compound I-71] | – | – |
| 1000 to 10000 | < 100 | 100 to 1000 | 100 to 1000 | CC(C)n1nccc1-c1ccnc(N[C@@H](C)c2cc3cc(Cl)ccc3[nH]c2=O)n1 [Compound I-75] | – | – |
| 100 to 1000 | 100 to 1000 | 100 to 1000 | 100 to 1000 | CC(C)Cn1cncc1-c1ccnc(N[C@@H](C)c2cc3cc(Cl)ccc3[nH]c2=O)n1 [Compound I-85] | – | – |
| 1000 to 10000 | 100 to 1000 | 1000 to 10000 | 100 to 1000 | C[C@H](Nc1nccc(-c2ccn[nH]2)n1)c1cc2cc(Cl)ccc2[nH]c1=O [Compound I-87] | – | – |
| 1000 to 10000 | < 100 | 100 to 1000 | 100 to 1000 | C[C@H](Nc1nccc(-c2cnsc2)n1)c1cc2cc(Cl)ccc2[nH]c1=O [Compound I-88] | – | – |
| 1000 to 10000 | 100 to 1000 | 1000 to 10000 | 1000 to 10000 | Cc1ncccc1-c1ccnc(N[C@@H](C)c2cc3cc(Cl)ccc3[nH]c2=O)n1 [Compound I-90] | – | – |
| 1000 to 10000 | 100 to 1000 | 100 to 1000 | 100 to 1000 | C[C@H](Nc1nccc(-c2cncc3ccccc23)n1)c1cc2cc(Cl)ccc2[nH]c1=O [Compound I-92] | – | – |
| 1000 to 10000 | 100 to 1000 | 100 to 1000 | < 100 | C[C@H](Nc1nccc(-c2cccnc2)n1)c1cc2cc(Cl)ccc2[nH]c1=O [Compound I-94] | – | – |
| 1000 to 10000 | 100 to 1000 | 100 to 1000 | 100 to 1000 | C[C@H](Nc1nccc(-c2ccncc2)n1)c1cc2cc(Cl)ccc2[nH]c1=O [Compound I-95] | – | – |
| 100 to 1000 | < 100 | 100 to 1000 | < 100 | Cc1cnccc1-c1ccnc(N[C@@H](C)c2cc3cc(Cl)ccc3[nH]c2=O)n1 [Compound I-96] | – | – |

| SMILES | IC50 [1, 5] [nM] | IC50 [2] [nM] | IC50 [3] [nM] | IC50 [4, 6] [nM] | IC50 ([1]; HCT-116, 24 h) [nM] | IC50 ([4]; HCT-116, 24 h) [nM] |
| --- | --- | --- | --- | --- | --- | --- |
| COc1nc(N[C@@H](C)c2cc3cc(Cl)ccc3[nH]c2=O)ncc1C#N [Compound I-36, (S)-2-((1-(6-Chloro-2-oxo-1,2-dihydroquinolin-3-yl)ethyl)amino)-4-methoxypyrimidine-5-carbonitrile] | – | < 100 | 100 to 1000 | – | 100 to 1000 | < 100 |
